Source: ChEMBL document CHEMBL1145378 (J Med Chem, 2007)

Test system: not listed separately
Assay: Permeability from apical to basolateral side of the Caco-2 cell membrane
Type: ADME, cell-based
Conditions: human
Molecule `CS(=O)(=O)Nc1ccc(CCN(CCOc2ccc(NS(C)(=O)=O)cc2)c2ccc([N+](=O)[O-])c3nonc23)cc1` has a Papp A→B of 37 nm/s.
Work on `CN(CCOc1ccc(NS(C)(=O)=O)cc1)CCc1ccc(NS(C)(=O)=O)cc1` [DOFETILIDE] yielded a Papp A→B of 157 nm/s.

Molecular target: Voltage-gated inwardly rectifying potassium channel KCNH2 (Homo sapiens, UniProt Q12809)
Sequence (Q12809 whole entry): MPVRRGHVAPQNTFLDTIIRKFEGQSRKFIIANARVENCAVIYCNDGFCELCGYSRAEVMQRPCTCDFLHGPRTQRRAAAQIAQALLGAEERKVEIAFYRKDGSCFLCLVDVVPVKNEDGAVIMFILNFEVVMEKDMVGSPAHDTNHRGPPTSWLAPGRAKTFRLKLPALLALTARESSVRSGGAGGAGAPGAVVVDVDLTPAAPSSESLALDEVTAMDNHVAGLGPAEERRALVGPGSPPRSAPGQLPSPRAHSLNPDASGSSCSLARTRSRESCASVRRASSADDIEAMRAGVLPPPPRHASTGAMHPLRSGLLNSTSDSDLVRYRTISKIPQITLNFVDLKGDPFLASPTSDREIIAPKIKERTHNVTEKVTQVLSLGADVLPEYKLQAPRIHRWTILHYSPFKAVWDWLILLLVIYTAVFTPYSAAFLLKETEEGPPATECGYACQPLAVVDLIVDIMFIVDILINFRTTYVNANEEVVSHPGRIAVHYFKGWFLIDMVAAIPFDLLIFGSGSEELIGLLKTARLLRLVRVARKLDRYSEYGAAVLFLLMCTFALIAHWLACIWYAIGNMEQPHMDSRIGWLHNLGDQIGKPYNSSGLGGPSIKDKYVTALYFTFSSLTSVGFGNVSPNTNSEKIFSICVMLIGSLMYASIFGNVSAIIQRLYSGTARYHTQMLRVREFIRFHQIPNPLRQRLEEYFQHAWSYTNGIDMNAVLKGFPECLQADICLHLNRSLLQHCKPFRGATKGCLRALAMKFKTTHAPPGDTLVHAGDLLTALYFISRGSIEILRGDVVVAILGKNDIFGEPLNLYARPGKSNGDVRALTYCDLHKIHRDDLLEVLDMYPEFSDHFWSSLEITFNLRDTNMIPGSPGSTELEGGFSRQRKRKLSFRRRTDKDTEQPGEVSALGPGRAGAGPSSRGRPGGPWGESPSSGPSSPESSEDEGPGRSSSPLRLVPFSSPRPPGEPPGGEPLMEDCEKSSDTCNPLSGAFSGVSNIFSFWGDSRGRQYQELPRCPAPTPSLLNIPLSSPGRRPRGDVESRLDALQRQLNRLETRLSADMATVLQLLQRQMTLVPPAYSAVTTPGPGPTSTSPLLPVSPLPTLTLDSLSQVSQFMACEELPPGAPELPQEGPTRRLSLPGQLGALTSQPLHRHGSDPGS
Assay: not given
Conditions: not given
Work on `CN(C)c1ccc2c(c1)Oc1cc(N(C)C)ccc1C21OC(=O)c2cc(C(=O)NCCCCCCN(CCOc3ccc(NS(C)(=O)=O)cc3)CCc3ccc(NS(C)(=O)=O)cc3)ccc21` yielded a Ki of 0.089 µM.
In the case of `CS(=O)(=O)Nc1ccc(CCN(CCCCCCNC(=O)c2ccc3c(c2)C(=O)OC32c3ccc(O)cc3Oc3cc(O)ccc32)CCOc2ccc(NS(C)(=O)=O)cc2)cc1`, the Ki is reported as 0.015 µM.
With `CN(C)c1ccc2c(c1)Oc1cc(N(C)C)ccc1C21OC(=O)c2cc(C(=O)N(CCOc3ccc(NS(C)(=O)=O)cc3)CCc3ccc(NS(C)(=O)=O)cc3)ccc21` the Ki was greater than 1 µM.
`CC1(C)C2=C3C=C4C5=[N+](CCC4OC3CCN2c2ccc(CCC(=O)NCCCCCCN(CCOc3ccc(NS(C)(=O)=O)cc3)CCc3ccc(NS(C)(=O)=O)cc3)cc21)c1ccc(S(=O)(=O)[O-])cc1C5(C)C` (configuration not stated) gave a Ki of 0.019 µM.
Molecule `CC1(C)C2=C3C=C4C5=[N+](CCC4OC3CCN2c2ccc(CC(=O)NCCCCN(CCOc3ccc(NS(C)(=O)=O)cc3)CCc3ccc(NS(C)(=O)=O)cc3)cc21)c1ccc(S(=O)(=O)[O-])cc1C5(C)C` (configuration not stated) has a Ki of 0.018 µM.
With `CCN1CCCc2cc3c(cc21)OC1=CC2=[N+](CCCC(=O)N(CCOc4ccc(NS(C)(=O)=O)cc4)CCc4ccc(NS(C)(=O)=O)cc4)CCCC2=CC1N3` (configuration not stated) the Ki was 0.0036 µM.
For `CCNC(=O)Cc1ccc2c(c1)C(C)(C)C1C3C=C4C5=[N+](CCC4OC3CCN21)c1ccc(S(=O)(=O)[O-])cc1C5(C)C` (configuration not stated), the Ki was greater than 1 µM.
Molecule `CC1(C)C2=C3C=C4C5=[N+](CCC4OC3CCN2c2ccc(CCCCCC(=O)NCCCCCCN(CCOc3ccc(NS(C)(=O)=O)cc3)CCc3ccc(NS(C)(=O)=O)cc3)cc21)c1ccc(S(=O)(=O)[O-])cc1C5(C)C` (configuration not stated) has a Ki of 0.01 µM.
In the case of `CS(=O)(=O)Nc1ccc(CCN(CCOc2ccc(NS(C)(=O)=O)cc2)C(=O)c2ccc3c(c2)C(=O)OC32c3ccc(O)cc3Oc3cc(O)ccc32)cc1`, the Ki is reported as 0.98 µM.
Molecule `CC1(C)C2=C3C=C4C5=[N+](CCC4OC3CCN2c2ccc(CC(=O)NCCN(CCOc3ccc(NS(C)(=O)=O)cc3)CCc3ccc(NS(C)(=O)=O)cc3)cc21)c1ccc(S(=O)(=O)[O-])cc1C5(C)C` (configuration not stated) has a Ki of 7.3 µM.
Work on `CC1(C)C2=C3C=C4C5=[N+](CCC4OC3CCN2c2ccc(CC(=O)NCCCCCN(CCOc3ccc(NS(C)(=O)=O)cc3)CCc3ccc(NS(C)(=O)=O)cc3)cc21)c1ccc(S(=O)(=O)[O-])cc1C5(C)C` (configuration not stated) yielded a Ki of 0.013 µM.
With `CC1(C)C2=C3C=C4C5=[N+](CCC4OC3CCN2c2ccc(CC(=O)NCCCN(CCOc3ccc(NS(C)(=O)=O)cc3)CCc3ccc(NS(C)(=O)=O)cc3)cc21)c1ccc(S(=O)(=O)[O-])cc1C5(C)C` (configuration not stated) the Ki was 0.16 µM.

Test system: not listed separately
Assay: Permeability from basolateral to apical side of the Caco-2 cell membrane
Type: ADME, cell-based
Conditions: human
In the case of `CS(=O)(=O)Nc1ccc(CCN(CCOc2ccc(NS(C)(=O)=O)cc2)c2ccc([N+](=O)[O-])c3nonc23)cc1`, the Papp B→A is reported as 180 nm/s.
In the case of `CN(CCOc1ccc(NS(C)(=O)=O)cc1)CCc1ccc(NS(C)(=O)=O)cc1` [DOFETILIDE], the Papp B→A is reported as 143 nm/s.

Molecular target: hERG (KCNH2) (Homo sapiens, UniProt Q12809)
Sequence (Q12809 whole entry): as above
Assay: in vitro
Conditions: HEK293 cells that express hERG
In the case of `CN(CCOc1ccc(NS(C)(=O)=O)cc1)CCc1ccc(NS(C)(=O)=O)cc1` [DOFETILIDE], the inhibition at 0.025 µM is reported as 80%.
